Test results taken from patent publication US10391080B2, “Ketorolac for the treatment of cancer” (Cipla Limited, priority 2016, dated 2019).
Where two headings read alike, the source gives them in different places.

Tests used:
[1] = test system: RXF 486L; assay: In vitro 2D assay, CellTiter-Blue Cell Viability Assay; format: cell-based; conditions: Homo sapiens, 96 h treatment
Experimental: (§1) The objective of this study was to investigate the in-vitro anticancer activity of ketorolac. Antitumor activity was assessed in ten selected renal cancer cell lines by using the CellTiter-Blue Cell Viability Assay. The human renal cancer cell lines RXF 1183L, RXF 1220L, RXF 1781L, RXF 393L, RXF 486L, RXF 786-0, RXF A-498, RXF ACHN, RXF Caki-1 and RXF SN12C were used. RXF 1183L, RXF 1220L, RXF 1781L, RXF 393L and RXF 486L were established at Oncotest from the corresponding human patient-derived xenograft. The cell lines 786-0, A-498, Caki-1 and SN12C were purchased from NCI (National Cancer Institute, Bethesda, Md., USA). ACHN was purchased from ECACC (European Collection of Cell Cultures, Salisbury, UK). Authenticity of cell lines was confirmed at the DSMZ by STR (short tandem repeat) analysis, a PCR based DNA-fingerprinting methodology.
(§2) Cell lines were routinely passaged once or twice weekly and maintained in culture for up to 20 passages. All cells were grown at 37° C. in a humidified atmosphere with 5% CO2 in RPMI 1640 medium (25 mM HEPES, with L-glutamine, #FG1385, Biochrom, Berlin, Germany) supplemented with 10% (v/v) fetal calf serum (Sigma, Taufkirchen, Germany) and 0.1 mg/mL gentamicin (Life Technologies, Karlsruhe, Germany).
(§3) Ketorolac was dissolved at a concentration of 60 mM in cell culture media. Starting with this stock solution, dilutions were made using cell culture media resulting in final test concentrations of 12000, 7800, 6000, 4200, 3000, 1800, 600, 420, 180, 60 μM. Precipitation was not observed.
(§4) The CellTiter-Blue Cell Viability Assay was used according to manufacturer's instructions. Briefly, cells were harvested from exponential phase cultures, counted and plated in 96-well flat-bottom microtiter plates at a cell density of 4,000-12,000 cells/well depending on the cell line's growth rate. After a 24 h recovery period to allow the cells to resume exponential growth, ketorolac was applied at 8 to 10 concentrations in duplicate and treatment continued for 96 h. After 96 h treatment of cells, 20 μL/well CellTiter-Blue® reagent was added. Following an incubation period of up to four hours, fluorescence (FU) was measured by using the Enspire Multimode Plate Reader (excitation λ=531 nm, emission λ=615 nm).
(§5) For calculations, the mean values of duplicate/quadruplicate (untreated control) data were used. Sigmoidal concentration-response curves were fitted to the data points (T/C values) obtained for each cell line using 4 parameter non-linear curve fit.

[2] = test system: RXF 1183L; assay: as above; format: cell-based; conditions: Homo sapiens, 96 h treatment
Experimental: as §1, §2, §3, §4, §5

[3] = test system: RXF Caki-1; assay: as above; format: cell-based; conditions: Homo sapiens, Caki-1, 2D, 96 h treatment
Experimental: as §1, §2, §3, §4, §5

[4] = test system: RXF 1220L; assay: as above; format: cell-based; conditions: Homo sapiens, 96 h treatment
Experimental: as §1, §2, §3, §4, §5

[5] = test system: RXF A-498; assay: as above; format: cell-based; conditions: Homo sapiens, A498, A-498, 2D, 96 h treatment
Experimental: as §1, §2, §3, §4, §5

[6] = test system: RXF 786-0; assay: as above; format: cell-based; conditions: Homo sapiens, 786-O, 96 h treatment
Experimental: as §1, §2, §3, §4, §5

[7] = test system: RXF 393L; assay: as above; format: cell-based; conditions: Homo sapiens, 96 h treatment
Experimental: as §1, §2, §3, §4, §5

[8] = test system: 786-O; assay: In vitro 3D assay, clonogenic assay (colony formation in semi-solid medium); format: cell-based; conditions: Homo sapiens, 786-0, 3D colony formation, continuous exposure 8 to 13 days
Experimental: Ketorolac was characterized for its ability to inhibit anchorage independent growth and ex vivo colony formation of tumor cells in semi-solid medium. The compound was tested against 10 human tumor xenograft-derived cell suspensions or tumor cell lines of renal cancer.
Cell lines were routinely passaged one or twice weekly. […] The percentage of viable cells was determined in a Neubauer-hemocytometer using trypan blue exclusion.
Tumor xenografts (patient-derived, as well as cell line-derived xenografts) were passaged as subcutaneous xenografts in NMRI nu/nu mice. At a tumor volume of 400-1000 mm^3 tumor-bearing mice were sacrificed and tumors were collected under sterile conditions without delay according to the relevant Oncotest SOPs and the relevant animal welfare guidelines published by the FELASA and the GV-SOLAS. […] The percentage of viable cells was determined in a Neubauer-hemocytometer using trypan blue exclusion. Aliquots of the cells were frozen down, and stored in liquid nitrogen. On each day of an experiment, a frozen aliquot of tumor cells was thawed and used for preparation of assay plates.
The clonogenic assay was carried out in a 96 well plate format using ultra low attachment plates. […] Every plate included six untreated control wells and drug-treated groups in duplicate at 9 concentrations. […] At the time of maximum colony formation, counts were performed with an automatic image analysis system (Celllnsight NXT, Thermo Scientific). 48 hours prior to evaluation, vital colonies were stained with a sterile aqueous solution of 2-(4-iodophenyl)-3-(4-nitrophenyl)-5-phenyltetrazolium chloride (1 mg/ml, 100 μl/well).

[9] = test system: A498 cells; assay: In vivo animal efficacy study, subcutaneous A498 tumor fragments; parameters: species or system female athymic nude mice
Experimental: 10 Healthy female athymic nude mice were recruited for the donor cell inoculation. Animals were subcutaneously injected at flank region with 10 million A498 cells suspended in 200 μl of media and matrigel. Animals were monitored for solid tumor growth. […] Tumors were fragmented in to ˜30 mg size. […] [table] The tumor sizes were measured weekly twice from the date of tumor appearance till the end of the experiment. Tumor size was measured by digital vernier caliper (MITUTOYO) by measuring length (L=longest axis) and width (W=shortest axis). Tumor Volume was calculated using the formula: […] Form the tumor volume data mean tumor volume and % tumor growth inhibition (% TGI) were calculated (SEM=standard error of mean).

[10] = Ketorolac 5 mg/kg p.o. q.d. × 21 (G3), day 1
[11] = Ketorolac 5 mg/kg p.o. q.d. × 21 (G3), day 6
[12] = Ketorolac 5 mg/kg p.o. q.d. × 21 (G3), day 9
[13] = Ketorolac 5 mg/kg p.o. q.d. × 21 (G3), day 13
[14] = Ketorolac 5 mg/kg p.o. q.d. × 21 (G3), day 16
[15] = Ketorolac 10 mg/kg p.o. q.d. × 21 (G4), day 1
[16] = Ketorolac 10 mg/kg p.o. q.d. × 21 (G4), day 6
[17] = Ketorolac 10 mg/kg p.o. q.d. × 21 (G4), day 9
[18] = Ketorolac 10 mg/kg p.o. q.d. × 21 (G4), day 13
[19] = Ketorolac 10 mg/kg p.o. q.d. × 21 (G4), day 16

Compound: O=C(c1ccccc1)c1ccc2n1CCC2C(=O)O (racemic) [Ketorolac, (±)-5-benzoyl-2,3-dihydro-1H-pyrrolizine-1-carboxylic acid]
- IC50 ([1]; read-out: Absolute IC50): 3.15 mM
- IC50 ([1]; read-out: Relative IC50): 3.29 mM
- IC50 ([2]; read-out: Absolute IC50): 2.4 mM
- IC50 ([2]; read-out: Relative IC50): 2.67 mM
- IC50 ([3]; read-out: Absolute IC50): 2.79 mM
- IC50 ([3]; read-out: Relative IC50): 3.44 mM
- IC50 ([4]; read-out: Absolute IC50): 4.77 mM
- IC50 ([4]; read-out: Relative IC50): 5.36 mM
- IC50 ([5]; read-out: Absolute IC50): 4.75 mM
- IC50 ([5]; read-out: Relative IC50): 5.65 mM
- IC50 ([6]; read-out: Absolute IC50): 3.25 mM
- IC50 ([6]; read-out: Relative IC50): 3.85 mM
- IC50 ([7]; read-out: Absolute IC50): 3.14 mM
- IC50 ([7]; read-out: Relative IC50): 3.75 mM
- IC50 ([8]; read-out: Absolute IC50): 3.84 mM
- IC50 ([8]; read-out: Relative IC50): 4.2 mM
- Mean Tumor Volume [9, 10]: 145.65 mm^3
- Tumor Growth Inhibition (% TGI) [9, 10]: 1.29%
- Mean Tumor Volume [9, 11]: 174.13 mm^3
- Tumor Growth Inhibition (% TGI) [9, 11]: 47.54%
- Mean Tumor Volume [9, 12]: 297.42 mm^3
- Tumor Growth Inhibition (% TGI) [9, 12]: 35.87%
- Mean Tumor Volume [9, 13]: 460.01 mm^3
- Tumor Growth Inhibition (% TGI) [9, 13]: 25.45%
- Mean Tumor Volume [9, 14]: 559.69 mm^3
- Tumor Growth Inhibition (% TGI) [9, 14]: 41.77%
- Mean Tumor Volume ([9]; Ketorolac 5 mg/kg p.o. q.d. × 21 (G3), day 20): 626.62 mm^3
- Mean Tumor Volume [9, 15]: 145.79 mm^3
- Tumor Growth Inhibition (% TGI) [9, 15]: 1.20%
- Mean Tumor Volume [9, 16]: 168.10 mm^3
- Tumor Growth Inhibition (% TGI) [9, 16]: 49.36%
- Mean Tumor Volume [9, 17]: 223.78 mm^3
- Tumor Growth Inhibition (% TGI) [9, 17]: 51.75%
- Mean Tumor Volume [9, 18]: 215.58 mm^3
- Tumor Growth Inhibition (% TGI) [9, 18]: 65.06%
- Mean Tumor Volume [9, 19]: 300.44 mm^3
- Tumor Growth Inhibition (% TGI) [9, 19]: 68.75%
- Mean Tumor Volume ([9]; Ketorolac 10 mg/kg p.o. q.d. × 21 (G4), day 20): 336.27 mm^3
